Measured values published in patent publication US10988478B1, “Pyrazolo[1,5a]pyrimidine derivatives as IRAK4 modulators” (Genentech, Inc., priority 2015, dated 2021).

Biological target: human IRAK4 (Homo sapiens (Human), UniProt Q9NWZ3)
Assay: IRAK4 kinase inhibition, Transcreener fluorescence polarization ADP assay
Type: biochemical
Conditions: recombinant full-length His6-IRAK4; 125 uM ATP; 90 min; Ki computed using ATP Km 642 uM
Experimental: Compounds were assayed for inhibition of human IRAK4 and IRAK1 catalytic activity using recombinant enzyme produced from insect cells. Full-length IRAK4 protein, carrying an N-terminal His6-Tag, was obtained from Life Technologies (Carlsbad, Calif., USA). The IRAK1 construct was produced internally and was comprised of IRAK1 residues Arg194 to Ser712, preceded by an NH2-terminal His6 tag and the coding sequence for glutathione-S-transferase.

Chain of human IRAK4 (Q9NWZ3 whole entry): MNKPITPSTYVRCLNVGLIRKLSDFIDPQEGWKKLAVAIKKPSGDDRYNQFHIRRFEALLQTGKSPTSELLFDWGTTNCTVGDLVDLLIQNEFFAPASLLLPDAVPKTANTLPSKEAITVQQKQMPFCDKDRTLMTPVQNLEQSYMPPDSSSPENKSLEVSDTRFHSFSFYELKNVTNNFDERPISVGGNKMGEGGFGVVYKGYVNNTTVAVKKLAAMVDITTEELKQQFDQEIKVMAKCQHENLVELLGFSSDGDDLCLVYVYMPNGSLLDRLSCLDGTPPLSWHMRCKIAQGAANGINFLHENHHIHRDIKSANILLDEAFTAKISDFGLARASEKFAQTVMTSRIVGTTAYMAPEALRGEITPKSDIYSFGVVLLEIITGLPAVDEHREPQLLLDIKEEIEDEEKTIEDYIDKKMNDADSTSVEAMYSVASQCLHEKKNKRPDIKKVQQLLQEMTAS

SMILES | Ki
CNC(=O)[C@H]1[C@@H]2CN(c3cc4c(cc3NC(=O)c3cnn5cccnc35)CC(C)(C)O4)C[C@@H]21 [Example 212, N-(2,2-dimethyl-6-((1R,5S,6r)-6-(methylcarbamoyl)-3-azabicyclo[3.1.0]hexan-3-yl)-2,3-dihydrobenzofuran-5-yl)pyrazolo[1,5-a]pyrimidine-3-carboxamide] | 56 nM
CC(C)C(=O)N1CCN(c2cc3c(cc2NC(=O)c2cnn4cccnc24)CC(C)(C)O3)CC1 [Example 219, N-(6-(4-isobutyrylpiperazin-1-yl)-2,2-dimethyl-2,3-dihydrobenzofuran-5-yl)pyrazolo[1,5-a]pyrimidine-3-carboxamide] | 82 nM
CC(=O)N1CCCN(c2cc3c(cc2NC(=O)c2cnn4cccnc24)CC(C)(C)O3)CC1 [Example 220, N-(6-(4-acetyl-1,4-diazepan-1-yl)-2,2-dimethyl-2,3-dihydrobenzofuran-5-yl)pyrazolo[1,5-a]pyrimidine-3-carboxamide] | 75 nM
CN1CCN(c2cc3c(cc2NC(=O)c2cnn4cccnc24)CC(C)(C)O3)CC(O)C1 (stereo not drawn) [Example 224, N-[6-(6-hydroxy-4-methyl-1,4-diazepan-1-yl)-2,2-dimethyl-3H-benzofuran-5-yl]pyrazolo[1,5-a]pyrimidine-3-carboxamide] | 330 nM
CC(C)NC(=O)CN1CCN(c2cc3c(cc2NC(=O)c2cnn4cccnc24)CC(C)(C)O3)CC1 [Example 225, N-(6-(4-(2-(Isopropylamino)-2-oxoethyl)piperazin-1-yl)-2,2-dimethyl-2,3-dihydrobenzofuran-5-yl)pyrazolo[1,5-a]pyrimidine-3-carboxamide] | 45 nM
C[C@@H]1CN(c2cc3c(cc2NC(=O)c2cnn4cccnc24)CC(C)(C)O3)C[C@H](C)N1CC(N)=O [Example 227, N-(6-((3R,5S)-4-(2-Amino-2-oxoethyl)-3,5-dimethylpiperazin-1-yl)-2,2-dimethyl-2,3-dihydrobenzofuran-5-yl)pyrazolo[1,5-a]pyrimidine-3-carboxamide] | 490 nM
CC1(C)Cc2cc(NC(=O)c3cnn4cccnc34)c(N3CCN(CC(=O)N4CCOCC4)CC3)cc2O1 [Example 228, N-(2,2-Dimethyl-6-(4-(2-morpholino-2-oxoethyl)piperazin-1-yl)-2,3-dihydrobenzofuran-5-yl)pyrazolo[1,5-a]pyrimidine-3-carboxamide] | 48 nM
Cc1nccc(C2CCN(c3cc4c(cc3NC(=O)c3cnn5cccnc35)CC(C)(C)O4)C2)n1 (stereo not drawn) [Example 229, N-(2,2-Dimethyl-6-(3-(2-methylpyrimidin-4-yl)pyrrolidin-1-yl)-2,3-dihydrobenzofuran-5-yl)pyrazolo[1,5-a]pyrimidine-3-carboxamide] | 260 nM
CC1(C)Cc2cc(NC(=O)c3cnn4cccnc34)c(N3CCn4ccnc4C3)cc2O1 [Example 233] | 100 nM
CC1(C)Cc2cc(NC(=O)c3cnn4cccnc34)c(N3CCC(c4nnco4)CC3)cc2O1 [Example 235, N-(6-(4-(1,3,4-Oxadiazol-2-yl)piperidin-1-yl)-2,2-dimethyl-2,3-dihydrobenzofuran-5-yl)pyrazolo[1,5-a]pyrimidine-3-carboxamide] | 4 nM
CC1(C)Cc2cc(NC(=O)c3cnn4cccnc34)c(N3CC4COCC(C3)C4O)cc2O1 (stereo not drawn) [Example 237, N-(6-(9-Hydroxy-3-oxa-7-azabicyclo[3.3.1]nonan-7-yl)-2,2-dimethyl-2,3-dihydrobenzofuran-5-yl)pyrazolo[1,5-a]pyrimidine-3-carboxamide] | 810 nM
CC1(C)Cc2cc(NC(=O)c3cnn4cccnc34)c(N3CCc4[nH]cnc4C3)cc2O1 [Example 238, N-(2,2-Dimethyl-6-(1,4,6,7-tetrahydro-5H-imidazo[4,5-c]pyridin-5-yl)-2,3-dihydrobenzofuran-5-yl)pyrazolo[1,5-a]pyrimidine-3-carboxamide] | 36 nM
COC1C2CCC1N(c1cc3c(cc1NC(=O)c1cnn4cccnc14)CC(C)(C)O3)C2 (stereo not drawn) [Example 239, N-(6-(7-Methoxy-2-azabicyclo[2.2.1]heptan-2-yl)-2,2-dimethyl-2,3-dihydrobenzofuran-5-yl)pyrazolo[1,5-a]pyrimidine-3-carboxamide] | 120 nM
CC1(C)Cc2cc(NC(=O)c3cnn4cccnc34)c(N3CCN(CC(=O)N4CCCC4)CC3)cc2O1 [Example 243, N-(2,2-Dimethyl-6-(4-(2-oxo-2-(pyrrolidin-1-yl)ethyl)piperazin-1-yl)-2,3-dihydrobenzofuran-5-yl)pyrazolo[1,5-a]pyrimidine-3-carboxamide] | 250 nM

Now from value to molecule:

Ki | SMILES
15 nM | CC1(C)Cc2cc(NC(=O)c3cnn4cccnc34)c(N3C[C@@H]4[C@H](C3)[C@H]4C(N)=O)cc2O1 [Example 208, N-(6-((1R,5S,6r)-6-carbamoyl-3-azabicyclo[3.1.0]hexan-3-yl)-2,2-dimethyl-2,3-dihydrobenzofuran-5-yl)pyrazolo[1,5-a]pyrimidine-3-carboxamide]
3 nM | CC1(C)Cc2cc(NC(=O)c3cnn4cccnc34)c(N3CCC4(CC3)CNC(=O)C4)cc2O1 [Example 213, N-(2,2-dimethyl-6-(3-oxo-2,8-diazaspiro[4.5]decan-8-yl)-2,3-dihydrobenzofuran-5-yl)pyrazolo[1,5-a]pyrimidine-3-]
12 nM | CC1(C)Cc2cc(NC(=O)c3cnn4cccnc34)c(N3CCCC3)cc2O1 [Example 214, N-(2,2-dimethyl-6-(pyrrolidin-1-yl)-2,3-dihydrobenzofuran-5-yl)pyrazolo[1,5-a]pyrimidine-3-carboxamide]
5.4 nM | CC1(C)Cc2cc(NC(=O)c3cnn4cccnc34)c(N3CC4C(CO)C4C3)cc2O1 (stereo not drawn) [Example 215, N-(6-(6-(hydroxymethyl)-3-azabicyclo[3.1.0]hexan-3-yl)-2,2-azabicyclo[3.1.0]dimethyl-2,3-dihydrobenzofuran-5-yl)pyrazolo[1,5-a]pyrimidine-3-carboxamide]
3 nM | CC1(C)Cc2cc(NC(=O)c3cnn4cccnc34)c(N3CCC(C#N)CC3)cc2O1 [Example 216, N-(6-(4-cyanopiperidin-1-yl)-2,2-dimethyl-2,3-dihydrobenzofuran-5-yl)pyrazolo[1,5-a]pyrimidine-3-carboxamide]
15 nM | CC1(C)Cc2cc(NC(=O)c3cnn4cccnc34)c(N3CCC(F)(F)C3)cc2O1 [Example 217, N-(6-(3,3-difluoropyrrolidin-1-yl)-2,2-dimethyl-2,3-dihydrobenzofuran-5-yl)pyrazolo[1,5-a]pyrimidine-3-carboxamide]
17 nM | CC1(C)Cc2cc(NC(=O)c3cnn4cccnc34)c(N3CCC(C(F)(F)F)CC3)cc2O1 [Example 218, N-(2,2-dimethyl-6-(4-(trifluoromethyl)piperidin-1-yl)-2,3-dihydrobenzofuran-5-yl)pyrazolo[1,5-a]pyrimidine-3-carboxamide]
6 nM | CC1(C)Cc2cc(NC(=O)c3cnn4cccnc34)c(N3CCN(C(C)(C)C(N)=O)CC3)cc2O1 [Example 226, N-(6-(4-(1-Amino-2-methyl-1-oxopropan-2-yl)piperazin-1-yl)-2,2-dimethyl-2,3-dihydrobenzofuran-5-yl)pyrazolo[1,5-a]pyrimidine-3-carboxamide]
18 nM | CC1(C)Cc2cc(NC(=O)c3cnn4cccnc34)c(N3CCN(CC4CCCO4)CC3)cc2O1 (stereo not drawn) [Example 230, N-(2,2-Dimethyl-6-(4-((tetrahydrofuran-2-yl)methyl)piperazin-1-yl)-2,3-dihydrobenzofuran-5-yl)pyrazolo[1,5-a]pyrimidine-3-carboxamide]
3 nM | CC1(C)Cc2cc(NC(=O)c3cnn4cccnc34)c(N3CCN(CCn4ccnc4)CC3)cc2O1 [Example 231, N-(6-(4-(2-(1H-Imidazo1-1-yl)ethyl)piperazin-1-yl)-2,2-dimethyl-2,3-dihydrobenzofuran-5-yl)pyrazolo[1,5-a]pyrimidine-3-carboxamide]
34 nM | CN(C)C(=O)CN1CCN(c2cc3c(cc2NC(=O)c2cnn4cccnc24)CC(C)(C)O3)CC1 [Example 232, N-(6-(4-(2-(Dimethylamino)-2-oxoethyl)piperazin-1-yl)-2,2-dimethyl-2,3-dihydrobenzofuran-5-yl)pyrazolo[1,5-a]pyrimidine-3-carboxamide]
33 nM | CC1(C)Cc2cc(NC(=O)c3cnn4cccnc34)c(N3CC4CCOC4C3)cc2O1 (stereo not drawn) [Example 234, N-(6-(Hexahydro-5H-furo[2,3-c]pyrrol-5-yl)-2,2-dimethyl-2,3-dihydrobenzofuran-5-yl)pyrazolo[1,5-a]pyrimidine-3-carboxamide]
13 nM | CC1(C)Cc2cc(NC(=O)c3cnn4cccnc34)c(N3CCC(C(N)=O)C3)cc2O1 (stereo not drawn) [Example 236, N-(6-(3-Carbamoylpyrrolidin-1-yl)-2,2-dimethyl-2,3-dihydrobenzofuran-5-yl)pyrazolo[1,5-a]pyrimidine-3-carboxamide]
27 nM | CC1(C)Cc2cc(NC(=O)c3cnn4cccnc34)c(N3CCC4CC43)cc2O1 (stereo not drawn) [Example 240, N-(6-(2-Azabicyclo[3.1.0]hexan-2-yl)-2,2-dimethyl-2,3-dihydrobenzofuran-5-yl)pyrazolo[1,5-a]pyrimidine-3-carboxamide]
15 nM | CC1(C)Cc2cc(NC(=O)c3cnn4cccnc34)c(N3CCC(S(N)(=O)=O)C3)cc2O1 (stereo not drawn) [Example 241, N-(2,2-Dimethyl-6-(3-sulfamoylpyrrolidin-1-yl)-2,3-dihydrobenzofuran-5-yl)pyrazolo[1,5-a]pyrimidine-3-carboxamide]
28 nM | CC1(C)Cc2cc(NC(=O)c3cnn4cccnc34)c(N3CCN(CC(=O)NC4CC4)CC3)cc2O1 [Example 242, N-(6-(4-(2-(Cyclopropylamino)-2-oxoethyl)piperazin-1-yl)-2,2-dimethyl-2,3-dihydrobenzofuran-5-yl)pyrazolo[1,5-a]pyrimidine-3-carboxamide]
